Where no end group is shown, it is not given here.

The subject of the assay is anti-CD28 scFv. The assay is described as follows: Panning ELISA of clonal phage, anti-CD28 scFv, with or without CD28 soluble protein (Peptide-9 library). The following applies: Peptide-9 library, background (no anti-CD28 scFv). It counts as binding. Here is the method:
Clonal phage were harvested as crude supernatants and screened via standard enzyme linked immunosorbent assays (ELISAs). […] Prior to the addition of clonal phage, wells were incubated with blocking buffer and CD28 soluble protein or blocking buffer alone. Without washing or aspirating, clonal phage supernatants were then added to the wells and incubated for a short time. Wells were then washed followed by detection of bound phage using a horse radish peroxidase conjugated anti-M13 antibody. Clonal phage of interest were then sent for sequence analysis.

anti-CD28 scFv, sequence (as listed by the source): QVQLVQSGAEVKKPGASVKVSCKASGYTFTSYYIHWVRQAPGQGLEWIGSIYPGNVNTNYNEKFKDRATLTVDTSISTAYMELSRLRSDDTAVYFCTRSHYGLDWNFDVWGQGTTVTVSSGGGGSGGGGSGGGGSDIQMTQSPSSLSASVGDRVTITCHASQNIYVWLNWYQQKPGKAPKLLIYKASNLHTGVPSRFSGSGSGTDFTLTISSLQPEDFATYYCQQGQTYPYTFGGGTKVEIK

For “Phage-39 (MDWCPMHLWHQCFN; not fully specified; cysteine pairing not given here)”, the Background signal was found to be 0.073. Then “Phage-40 (MDWCPIDMWDQCFN; not fully specified; cysteine pairing not given here)”, with 0.061. Then “Phage-41 (MAWCPRDKWSECFS; not fully specified; cysteine pairing not given here)”, with 0.062. Under “Phage-42 (MDWCPRHLWVHCFN; not fully specified; cysteine pairing not given here)” stands 0.071. For the substance “Phage-43 (MDWCPRALWHECFY; not fully specified; cysteine pairing not given here)”, the Background signal was determined as 0.115. Under “Phage-44 (MDWCPIALWAECFN; not fully specified; cysteine pairing not given here)” stands 0.111; under “Phage-45 (MDWCPRPLWHECFS; not fully specified; cysteine pairing not given here)”, 0.078; under “Phage-46 (MHWCPIDLWAECYA; not fully specified; cysteine pairing not given here)”, 0.082.

As to “Phage-47 (MAWCPVYLWHECFN; not fully specified; cysteine pairing not given here)”, the Background signal came to 0.094. In turn, “Phage-48 (IDWCPRYLWDECYN; not fully specified; cysteine pairing not given here)” yielded a Background signal of 0.061. Under “Phage-49 (MSWCPIHLWNECFN; not fully specified; cysteine pairing not given here)” stands 0.083; under “Phage-50 (MDWCPPYLWNVCFS; not fully specified; cysteine pairing not given here)”, 0.063.

Consider “Phage-51 (MDWCPMDLWDYCFN; not fully specified; cysteine pairing not given here)”, for which the Background signal was 0.071. For the substance “Phage-52 (MDWCPINLWDECFS; not fully specified; cysteine pairing not given here)”, the Background signal was found to be 0.062. The substance “Phage-53 (MDWCPMHLWNKCFN; not fully specified; cysteine pairing not given here)” showed a Background signal of 0.071. Then “Phage-54 (MNWCPRDMWYQCFN; not fully specified; cysteine pairing not given here)”, with 0.068; and “Phage-55 (QDWCPRHMWSFCFH; not fully specified; cysteine pairing not given here)”, with 0.138; and “Phage-56 (MHWCPMDQWSNCFN; left off: large carriers)”, with 0.062.

Substance “Phage-57 (MDWCPRHRWVDCFY; left off: large carriers)” gave a Background signal of 0.073. Then “Phage-58 (MHWCPIDRWADCFN; left off: large carriers)”, with 0.074; and “Phage-59 (MDWCPRDSWHLCFA; left off: large carriers)”, with 0.073; and “Phage-60 (MDWCPRTLWYLCFN; left off: large carriers)”, with 0.508. “Phage-61 (MVSCPTTMWNRCFN; left off: large carriers)” yielded a Background signal of 0.079.

The substance “Phage-62 (MDWCPSYLWNECFF; left off: large carriers)” showed a Background signal of 0.065. On to “Phage-64 (MDWCPRALWAECFN; left off: large carriers)”, for which the Background signal is given as 0.068. The substance “Phage-65 (MDWCPMYLWNECFN; left off: large carriers)” showed a Background signal of 0.064. For Phage-93 (MDWCPRYLWTVCFS), the Background signal came to 0.115. In turn, Phage-94 (MDWCPRDLWSLCFY) showed a Background signal of 0.065.

Consider Phage-95 (MDWCPRFLWSECFN), for which the Background signal came to 0.062.

Turning to Phage-96 (MDWCPRTLWAYCFN), the Background signal is 0.070. Substance Phage-97 (MDWCPKDLWDYCFA) came in with a Background signal of 0.078.

Consider Phage-98 (MDWCPKYLWDVCFN), for which the Background signal is 0.096.

Phage-99 (MDWCPRYLWNMCFH) came in with a Background signal of 0.114. Phage-100 (MDWCPRYLWTECFN): the Background signal turned out to be 0.062.

Phage-109 (MDWCPKNLWHVCFN) gave a Background signal of 0.081.

Turning to Phage-110 (MDWCPRYLWDECFN), the Background signal is 0.069.

Phage-111 (MDWCPFYLWNECFY) showed a Background signal of 0.099. Then Phage-112 (MHWCPRALWDVCYN), with 0.077; and Phage-113 (MDWCPRDLWNVCFF), with 0.164.

For the substance Phage-114 (MDWCPRYLWFECFA), the Background signal is given as 0.066.

In turn, Phage-115 (MDWCPRYLWHECFN) yielded a Background signal of 0.105.

In turn, Phage-116 (MDWCPRDLWYACFA) showed a Background signal of 0.072. Then Phage-117 (MDWCPRYLWFECFS), with 0.079; and Phage-118 (MDWCPRHLWDECFF), with 0.074; and Phage-119 (MDWCPRYLWHMCYS), with 0.129. Regarding Phage-120 (MDWCPRDLWHACFS), the Background signal came out at 0.074. Under Phage-121 (MDWCPRDLWHVCFF) stands 0.068. Then Phage-122 (MDWCPRDLWDQCYA), with 0.059; and Phage-123 (MDWCPIHLWNECFA), with 0.104; and Phage-124 (MDWCPRPLWDMCFF), with 0.063. Then Phage-125 (MDWCPVSLWHVCFY), with 0.107; and Phage-126 (MDWCPRFLWNECFN), with 0.072; and Phage-127 (MDWCPRALWNECFA), with 0.080. Phage-128 (MDWCPRDLWIECFF) displayed a Background signal of 0.084.

As for Phage-129 (MDWCPSYLWTVCFA), the Background signal was 0.062. Then Phage-130 (MDWCPRYLWDACFF), with 0.066; and Phage-131 (MDWCPRSLWIYCFN), with 0.113.

In turn, Phage-132 (MDWCPTYLWFECFN) came in with a Background signal of 0.205. The substance Phage-133 (MDWCPRFLWDECFF) returned a Background signal of 0.064. The substance Phage-134 (MDWCPSYLWHECFA) had a Background signal of 0.096. For Phage-135 (MDWCPKFLWHECFS), the Background signal is 0.065. For Phage-136 (MHWCPIYLWDECFN), the Background signal was 0.071. Under Phage-137 (MDWCPRYLWHECFH) stands 0.101; under Phage-138 (MDWCPTNLWHECFA), 0.061; under Phage-139 (MDWCPRDLWDVCFA), 0.096. Under Phage-140 (MDWCPMDLWDVCFN) stands 0.090.

The record behind these values is US20260242478A1, “ANTIBODIES FOR TARGETING PSMA AND CD28 AND USES THEREOF” (Janux Therapeutics, Inc., priority 2023, published 2026).
